“Also recorded” adds a separate entry of the source.
What was measured:
YAP1 = experiment: YAP / Sox9 immunolocalization in TMJ discs and condylar growth plate of the CFA model; format: in vivo, rat
Procedure: Because of this initial success, it was further examined if PFI-2 treatment could rescue inhibition of chondrocyte maturation and return YAP expression in the condylar growth plate of animals suffering from inflammation. To test the ability to repair damage, animals were injected with saline or CFA. After inflammation, a subset of the CFA-treated animals were also injected with PFI-2. Tissue samples from each were stained with H&E, safranin O, and PCNA, YAP was detected by immunostaining, and cartilage differentiation was determined by immunostaining for Sox 9 (FIG. 3A-FIG. 3O). The samples were also examined by RT-PCR for expression levels of collagen 2, collagen 10, Mmp 13 metalloproteinase, Runx2 bone transcription factor, and Sox 9 (FIG. 3P).
Here, the role of the Hippo pathway effectors YAP and TAZ is elucidated in an inflammatory TMD models. YAP and TAZ interact with DNA-binding factors of the TEAD family in the nucleus to regulate gene expression. […] First, the expression and subcellular localization of YAP is characterized under physiological and inflammatory conditions in TMJ tissues, RSSCs and RCs. The expression pattern of the YAP protein in TMJ tissues are elucidated by immunohistochemistry using anti-YAP antibody and the expression levels of YAP mRNA and protein is determined using qRT-PCR and Western blotting. […]

SETD7 [1] = molecular target: T1, SETD7 (Rattus norvegicus, UniProt A0A8I6A0F7); experiment: SETD7 and YAP localization and protein methylation in TNF-α treated RSSCs; format: cell-based; settings: RSSCs treated with TNF-α
T1 construct: endogenous in cells; host or cells: primary rat synovial mesenchymal stem cells (RSSCs)
Procedure: As a first step, the expression and localization of SETD7 and YAP are examined in RCs and RSSCs at the mRNA and protein level under physiological and inflammatory conditions. RCs and RSSCs are cultured with or without TNF-α for 6, 12, and 24 hours. Proteins and mRNAs from cultured cells are isolated for RT-PCR and Western Blot analyses. The localization of SETD7 and YAP in relationship toward each other is visualized by immunofluorescence, and the methylation levels and distribution of YAP in nuclei and cytoplasm are determined by Western blotting using anti-SETD7 and anti-YAP antibodies (Abcam). To determine whether YAP and SETD7 interact, co-immunoprecipitation assays is performed, and the degree of interaction between SETD7 and YAP is compared between TNF-α-treated cells and control cells (Ito et al. 2011).
Rat synovial mesenchymal stem cells (RSSCs) were cultured and examined for SETD7 nuclear localization.

RSSCs = experiment: BrdU labeling and β-gal senescence staining of TNF-α treated RSSCs; format: cell-based, rat; settings: RSSCs treated with TNFα
[2] = test system: TNFα-induced cell infiltration; experiment: Subcutaneous implantation of coated collagen sponges; format: in vivo; settings: sponges coated with TNFα plus PFI-2
Excerpt: In vivo analysis was examined by subcutaneous implantation of collagen sponges coated with PBS, TNF-α, or TNF-α and PFI-2.

IL-1β expression = experiment: Cultured condyle organs treated with IL-6, IL-1β immunostaining; format: cell-based; settings: IL-6 plus PFI-2
[3] = test system: SETD1, IL-6 and MMP2 expression; experiment: qRT-PCR and Western blotting of selected inflammatory genes under TNFα; format: cell-based, rat
SETD7 [4] = molecular target: T2, SETD7 (Homo sapiens, UniProt Q8WTS6); settings: Francis et al. 2018; cited from earlier work
T2 sequence (Q8WTS6 1-366): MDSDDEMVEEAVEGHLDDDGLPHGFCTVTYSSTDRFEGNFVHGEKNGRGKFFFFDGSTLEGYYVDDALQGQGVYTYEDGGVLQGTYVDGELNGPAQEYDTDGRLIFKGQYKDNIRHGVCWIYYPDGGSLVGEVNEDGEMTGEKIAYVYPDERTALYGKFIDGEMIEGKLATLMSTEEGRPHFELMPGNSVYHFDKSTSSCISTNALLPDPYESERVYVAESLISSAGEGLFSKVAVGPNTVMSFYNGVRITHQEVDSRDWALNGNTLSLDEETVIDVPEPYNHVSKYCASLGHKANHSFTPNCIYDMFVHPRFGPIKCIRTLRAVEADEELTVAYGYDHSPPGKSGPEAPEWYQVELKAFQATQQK

T1 sequence (A0A8I6A0F7 1-367): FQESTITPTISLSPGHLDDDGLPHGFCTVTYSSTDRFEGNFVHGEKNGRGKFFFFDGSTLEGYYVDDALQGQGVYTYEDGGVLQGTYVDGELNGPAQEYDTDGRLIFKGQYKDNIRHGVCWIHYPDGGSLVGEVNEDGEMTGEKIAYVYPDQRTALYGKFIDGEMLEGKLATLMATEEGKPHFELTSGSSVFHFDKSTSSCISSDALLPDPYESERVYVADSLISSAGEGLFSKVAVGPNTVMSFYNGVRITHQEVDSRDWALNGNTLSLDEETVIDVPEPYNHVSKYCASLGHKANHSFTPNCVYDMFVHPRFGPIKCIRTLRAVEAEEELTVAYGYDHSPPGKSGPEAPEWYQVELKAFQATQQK

SMILES: O=C([C@@H](Cc1cccc(C(F)(F)F)c1)NS(=O)(=O)c1cc(F)c2c(c1)CCNC2)N1CCCC1 [PFI-2]
- YAP expression and localization in the condylar growth plate (YAP1; PFI-2 injected following CFA induction of inflammatory conditions): rebalance YAP1 expression; also recorded: re-localized YAP1 and SOX9 proteins; also recorded: returned YAP expression
- YAP1 immunolocalization in TMJ discs (YAP1; rats, CFA model): translocated YAP into nuclei
- SETD7 nuclear localization (SETD7 [1]): blocked the effect of TNF-α on SETD7 nuclear localization
- global protein methylation levels in whole cell lysates (Western blot) (SETD7 [1]): reduces methylation; also recorded: inhibited this effect
- BrdU positive proliferating cells (RSSCs): restored the proliferative potential of inflammation-compromised cells; also recorded: restored cellular proliferation
- β-gal+ cell senescence (RSSCs): inhibited TNFα-induced cell senescence
- cell infiltration into collagen sponges [2]: reversed inflammatory cell infiltration in tissue implants; also recorded: reversed this effect
- extracellular matrix remodeling in collagen sponges [2]: promoted extracellular matrix remodeling; also recorded: promoted ECM remodeling
- IL-1β expression (immunostaining) (IL-1β expression): inhibited the expression of IL-18; also recorded: inhibited IL-1β expression
- swelling of the articular surface (thickness of fibrous and proliferative cell zones) (IL-1β expression): reversed the swelling of the articular surface
- TNFα-induced gene dysregulation (Western blotting) [3]: confirmed
- TNFα-induced upregulation of SETD1, IL-6 and MMP2 expression (qRT-PCR) ([3]; PFI-2 at 1, 10, and 50 μM): inhibited by treatment with PFI-2 in a dose-dependent manner; also recorded: inhibited TNFα-induced upregulation in a dose-dependent manner
- inflammation and tissue regeneration in periodontal diseases (SETD7 [4]): suppresses inflammation and promotes tissue regeneration

Source: US20260207581A1, “Small Molecule Inhibitor for Inflammatory Pain Inhibition” (University of Rochester, priority 2023, published 2026)
